The nature of the assay: Fluorimetric response of arsenical dye upon introduction of TSH2 (liquid-liquid method). The text has this: When unbound, FlAsH-EDT2 is virtually non-fluorescent. Upon binding of four sulfur atoms, free rotation about the As—C bond is restricted, and the dye becomes brightly fluorescent. Since this visualization method labels proteins inside of cells with low background fluorescence, we hypothesized that this molecular sensor could detect the parasite metabolite without interference from other thiols present in biological fluids. The binding of two molecules of TSH2 should prevent the free rotation about the As—C bond in FlAsH, causing a fluorimetric response.
FlAsH-EDT2 was virtually non-fluorescent, but upon introduction of TSH2, the fluorescence intensity rose. After approximately 10 minutes, the reaction reached saturation. […] The excitation and emission maxima for the conjugate were 505 nm and 527 nm respectively. This increase in fluorescence is readily detectable without a fluorimeter using a simple handheld black light such as those used at airport security checkpoints. This detection method could be implemented easily in a low technology, resource poor setting. We examined the limits of detection of the metabolite with FlAsH-EDT2. In our liquid-liquid method, a 10-fold excess of the metabolite is sufficient to observe a fluorimetric response within twenty minutes. Therefore, 2.5 nmol of the dye can be used to detect 25 nmol of the metabolite. While lower concentrations were detectable using a fluorimeter, the conjugation was too slow to be practical. However, FlAsH-EDT2 was not designed and is not optimized for this purpose, and it requires two molecules of TSH2 to bind in order to achieve the desired fluorescence response.

Structures are written as SMILES.

As to `O=C(O)c1ccccc1-c1c2ccc(=O)c([As]3SCCS3)c-2oc2c([As]3SCCS3)c(O)ccc12` [FlAsH-EDT2], under “2.5 nmol of the dye, liquid-liquid method”, the “amount of metabolite detected (limit of detection)” value amounted to 25 nmol. For the same molecule, where the note is “after introduction of TSH2”, the “time until the reaction reached saturation” value is “approximately 10 minutes”. For the setting “liquid-liquid method, response within twenty minutes”, the “excess of the metabolite sufficient to observe a fluorimetric response” value came out at 10 fold. Besides, the “fluorescence of unbound dye as % of the fluorescence of the FlAsH-(TSH2)2 conjugate” value (normalized fluorescence measurements) is reported as 0.4%.
